Reference: patent publication US7312249B2, “Vitamin D analogues” (Galderma Research & Development, priority 2002, dated 2007)

Legend:
Format in all cases: cell-based
HL60 cells = assay: Activity on the differentiation of HL60 cells (NBT reduction); details: Homo sapiens, HL-60, 96 h, 4 days of culture, NBT-positive cells counted
Source text: The biological properties analogous to vitamin D may also be measured by the capacity of the product to induce differentiation of promyelocytic leukaemia cells HL60. The protocol and the results obtained with the compounds according to the invention are described in Example 6 of the present application.
Calcitriol induces the differentiation of promyelocytic leukaemia cells (HL60) into monocytes/macrophages. This differentiation-inducing effect is a well characterized marker for cellular vitamin D. One of the most important anti-microbial products of macrophages is hydrogen peroxide, which may be analyzed experimentally by the reduction of NBT (Nitroblue Tetrazolium).
The method used is the following: the HL60 cells are inoculated into 6-well plates and then treated immediately with a test compound. After 4 days of culture, the cells are incubated with phorbol TPA ester and NBT for a short period and the differentiated cells, that is to say which are positive to NBT are counted.

[1] = system: normal human keratinocytes; assay: Activity on the proliferation of human keratinocytes (BrdU incorporation); details: Keratinocyte, 120 h, 5 days of culture, read-out: IC50 - proliferation of the KHNs
Experimental: The biological properties which are similar to vitamin D may also be measured by the capacity of the product to inhibit the proliferation of normal human keratinocytes (NHK in culture). The product is added to NHKs cultured under conditions promoting the proliferative state. The product is left in contact with the cells for 5 days. The number of proliferative cells is measured by incorporation of bromodeoxyuridine (BRdU) into DNA. The protocol for this test and the results obtained with the compounds according to the invention are described in Example 8 of the present application.
The method used is the following: normal human keratinocytes are inoculated at low density into a 24-well plate. After 4 hours, the compounds to be tested are added to the culture medium. After 5 days of culture, the proliferation of the kerátinocytes is determined by incorporating 5-bromo-2′-deoxyuridine (BrdU) into the DNA. The quantity of BrdU incorporated is then measured using the ELISA test (Enzyme Linked Immuno Sorbent Assay, marketed by Roche Molecular Biochemicals).

human VDR receptor = molecular target: T1, human VDR receptor (Homo sapiens, UniProt P11473); assay: VDR agonist activity, co-transfection of HeLa cells with human VDR expression vector and reporter plasmid p240Hase-CAT; details: CAT reporter (rat 24-hydroxylase promoter), 18 hours of treatment
T1 construct: expressed in transfected cells; host or cells: HeLa
T1 sequence (P11473 1-427): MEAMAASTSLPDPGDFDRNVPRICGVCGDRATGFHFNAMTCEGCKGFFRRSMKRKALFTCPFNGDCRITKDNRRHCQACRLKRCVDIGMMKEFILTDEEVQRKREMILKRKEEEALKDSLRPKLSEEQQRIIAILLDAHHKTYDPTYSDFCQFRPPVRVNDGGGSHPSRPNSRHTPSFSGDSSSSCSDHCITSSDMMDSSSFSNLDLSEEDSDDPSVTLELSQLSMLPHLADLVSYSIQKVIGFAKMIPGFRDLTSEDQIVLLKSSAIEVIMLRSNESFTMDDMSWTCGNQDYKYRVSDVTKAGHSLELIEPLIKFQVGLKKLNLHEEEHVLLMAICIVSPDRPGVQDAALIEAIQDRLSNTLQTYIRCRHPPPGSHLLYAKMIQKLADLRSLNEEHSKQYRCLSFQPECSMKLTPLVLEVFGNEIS
Experimental: By way of example, the VDR agonist activity may be tested on the HeLa cell line, by co-transfecting a human VDR receptor expression vector and the reporter plasmid p240Hase-CAT. The agonist activity may also be characterized in this co-transfection system by the determination of the dose necessary to reach 50% of the maximum activity of the product (AC50).
18 hours after co-transfection, the compound to be tested is added to the medium. After 18 hours of treatment, the assay of the CAT activity of the cellular lysates is carried out by an ELISA test (Enzyme Linked Immuno Sorbent Assay, marketed by Roche Molecular Biochemicals). The agonist activity may be characterized in this co-transfection system by determining the dose required to reach 50% of the maximum activity of the compound tested (AC50).

| Compound | AC50 (HL60 cells) | IC50 [1] | AC50 (human VDR receptor) |
| --- | --- | --- | --- |
| C=C1/C(=C\C=C2/CCC[C@]3(C)[C@@H]([C@H](C)CCCC(C)(C)O)CC[C@@H]23)C[C@@H](O)C[C@@H]1O [Calcitriol, 1,25-dihydroxyvitamin D3, reference compound] | 0.0107 µM |  |  |
| Cc1cc(CCCc2ccc(CO)c(CO)c2)ccc1OCC(O)C(C)(C)C (stereo not drawn) [Compound of Example 2, 1-{4-[3-(3,4-Bis-hydroxymethyl-phenyl)-propyl]-2-methyl-phenoxy}-3,3-dimethyl-butan-2-ol] | 2.5 µM | 0.14 µM | 0.172 µM |
| CCc1cc(CCCc2ccc(CO)c(CO)c2)ccc1OCC(O)C(C)(C)C (stereo not drawn) [Compound of Example 1, 1-{4-[3-(3,4-Bis-hydroxymethyl-phenyl)-propyl]-2-ethyl-phenoxy}-3,3-dimethyl-butan-2-ol] | 0.312 µM | 0.15 µM | 0.04 µM |
| CCc1cc(CCCc2ccc(CO)c(CO)c2)ccc1OCC(O)(CC)CC [Compound of Example 3, (4-{3-(3-Ethyl-4-(2-ethyl-2-hydroxy-butoxy)-phenyl]-propyl}-2-hydroxymethyl-phenyl)-methanol] |  |  | 1.21 µM |
| CCC(O)(CC)COc1ccc(CCCc2ccc(CO)c(CO)c2)cc1C [Compound of Example 4, (4-{3-(4-(2-Ethyl-2-hydroxy-butoxy)-3-methyl-phenyl]-propyl)-2-hydroxymethyl-phenyl)-methanol] |  |  | > 3 µM |
